Measurements taken from patent US20240101573A1, “MACROCYCLIC K-RAS G12C INHIBITOR, PREPARATION METHOD THEREFOR AND USE THEREOF” (Abbisko Therapeutics Co., Ltd., priority 2020, published 2024).

Tests used:
H358 = test: Anti-proliferation 2D CTG test (H358); type: cell-based; conditions: H358 cells, 1500 cells/well, 5 days incubation with compound, CTG readout
How it was run: (§1)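 H358 (1500 cells/well) and MIA PaCa-2 (500 cells/well) seeded overnight, then treated 5 days at 37 °C with 10-point 1:3 dilutions, top final […], 0.5% DMSO. Viability by CellTiter-Glo luminescence; IC50 from four-parameter fit normalized to plate controls.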

MIA PaCa-2 = test: Anti-proliferation 2D CTG test (MIA PaCa-2); type: cell-based; conditions: MIAPACA-2 cells, 500 cells/well, 5 days incubation with compound, CTG readout
How it was run: as §1

[1] = Homo sapiens, MIA PaCa-2, 120 h

An IC50 (H358) of 0.83 µM and an IC50 (MIA PaCa-2) of 0.708 µM were found for `C=CC(=O)N1CCN(c2nc(=O)n3c4nc(c(F)cc24)-c2c(F)cccc2OCC(OCC(F)F)C(O)c2ccnc(C(C)C)c2-3)[C@@H](C)C1` (stereo partly drawn) [Example 54, (S)-2^4-((S)-4-acryloyl-2-methylpiperazin-1-yl)-6-(2,2-difluoroethoxy)-2^6,3^6-difluoro-7-hydroxy-1^2-isopropyl-2^1,2^2-dihydro-4-oxa-2(1,7)-pyrido[2,3-d]pyrimidina-1(3,4)-pyridina-3(1,2)-benzocycloheptane-2^2-one] in this work.
An IC50 (H358; Homo sapiens, NCI-H358, 120 h) of 0.038 µM and an IC50 (MIA PaCa-2; [1]) of 0.016 µM were found for `C=CC(=O)N1CCN(c2nc(=O)n3c4nc(c(F)cc24)-c2c(F)cccc2OCC(OCCF)C(OCCF)c2ccnc(C(C)C)c2-3)[C@@H](C)C1` (stereo partly drawn) [Example 61, 2^4-((S)-4-acryloyl-2-methylpiperazin-1-yl)-2^6,3^6-difluoro-6,7-di(2-fluoroethoxy)-1^2-isopropyl-2^1,2^2-dihydro-4-oxa-2(1,7)-pyrido[2,3-d]pyrimidina-1(3,4)-pyridina-3(1,2)-benzocycloheptane-2^2-one] in this work.
An IC50 (H358; Homo sapiens, NCI-H358, 120 h) of 0.009 µM and an IC50 (MIA PaCa-2; [1]) of 0.003 µM were found for `C=CC(=O)N1C[C@H](C)N(c2nc(=O)n3c4nc(c(F)cc24)-c2c(F)cccc2OCC(O)C(OC(C)=O)c2ccnc(C(C)C)c2-3)C[C@H]1C` (stereo partly drawn) [Example 8, 2^4-((2S,5R)-4-acryloyl-2,5-dimethylpiperazin-1-yl)-2^6,3^6-difluoro-6-hydroxy-1^2-isopropyl-2^2-oxo-2^1,2^2-dihydro-4-oxa-2(1,7)-pyrido[2,3-d]pyrimidina-1(3,4)-pyridina-3(1,2)-benzocycloheptane-7-yl acetate] in this work.
An IC50 (H358) of 0.042 µM and an IC50 (MIA PaCa-2) of 0.154 µM were found for `C=CC(=O)N1CCN(c2nc(=O)n3c4nc(c(F)cc24)-c2c(F)cccc2OCC(OCC(F)F)C(O)c2ccnc(C(C)C)c2-3)[C@@H](C)C1` (stereo partly drawn) [Example 33, 2^4-((S)-4-acryloyl-2-methylpiperazin-1-yl)-6-(2,2-difluoroethoxy)-2^6,3^6-difluoro-7-hydroxy-1^2-isopropyl-2^1,2^2-dihydro-4-oxa-2(1,7)-pyrido[2,3-d]pyrimidina-1(3,4)-pyridina-3(1,2)-benzocycloheptane-2^2-one] in this work.
An IC50 (H358) of 0.028 µM and an IC50 (MIA PaCa-2) of 0.027 µM were found for `C=CC(=O)N1CCN(c2nc(=O)n3c4nc(c(F)cc24)-c2c(F)cccc2OCC(O)C(OCC)c2ccnc(C(C)C)c2-3)[C@@H](C)C1` (stereo partly drawn) [Example 28, 2^4-((S)-4-acryloyl-2-methylpiperazin-1-yl)-7-ethoxy-2^6,3^6-difluoro-6-hydroxy-1^2-isopropyl-2^1,2^2-dihydro-4-oxa-2(1,7)-pyrido[2,3-d]pyrimidina-1(3,4)-pyridina-3(1,2)-benzocycloheptane-2^2-one] in this work.
An IC50 (H358) of 0.031 µM and an IC50 (MIA PaCa-2) of 0.026 µM were found for `C=CC(=O)N1CCN(c2nc(=O)n3c4nc(c(F)cc24)-c2c(ccc(Cl)c2F)OCC(OCC)C(O)c2ccnc(C(C)C)c2-3)[C@@H](C)C1` (stereo partly drawn) [Example 69, 2^4-((S)-4-acryloyl-2-methylpiperazin-1-yl)-3^5-chloro-6-ethoxy-2^6,3^6-difluoro-7-hydroxy-1^2-isopropyl-2^1,2^2-dihydro-4-oxa-2(1,7)-pyrido[2,3-d]pyrimidina-1(3,4)-pyridina-3(1,2)-benzocycloheptane-2^2-one] in this work.
An IC50 (H358) of 0.008 µM and an IC50 (MIA PaCa-2) of 0.007 µM were found for `C=CC(=O)N1CCN(c2nc(=O)n3c4nc(c(F)cc24)-c2c(F)cccc2OCC(OC(C)C)C(O)c2ccnc(C(C)C)c2-3)[C@@H](C)C1` (stereo partly drawn) [Example 55, (R)-2^4-((S)-4-acryloyl-2-methylpiperazin-1-yl)-6-isopropoxy-2^6,3^6-difluoro-7-hydroxy-1^2-isopropyl-2^1,2^2-dihydro-4-oxa-2(1,7)-pyrido[2,3-d]pyrimidina-1(3,4)-pyridina-3(1,2)-benzocycloheptane-2^2-one] in this work.
An IC50 (H358) of 0.01 µM and an IC50 (MIA PaCa-2) of 0.007 µM were found for `C=CC(=O)N1CCN(c2nc(=O)n3c4nc(c(F)cc24)-c2c(F)cccc2OCC(O)C(OCC(F)F)c2ccnc(C(C)C)c2-3)[C@@H](C)C1` (stereo partly drawn) [Example 51, (R)-2^4-((S)-4-acryloyl-2-methylpiperazin-1-yl)-7-(2,2-difluoroethoxy)-2^6,3^6-difluoro-6-hydroxy-1^2-isopropyl-2^1,2^2-dihydro-4-oxa-2(1,7)-pyrido[2,3-d]pyrimidina-1(3,4)-pyridina-3(1,2)-benzocycloheptane-2^2-one] in this work.
An IC50 (H358; Homo sapiens, NCI-H358, 120 h) of 0.029 µM and an IC50 (MIA PaCa-2; [1]) of 0.02 µM were found for `C=CC(=O)N1CCN(c2nc(=O)n3c4nc(c(F)cc24)-c2c(F)cccc2OCCC(OC(C)=O)c2ccnc(C(C)C)c2-3)[C@@H](C)C1` (stereo partly drawn) [Example 16, 2^4-((S)-4-acryloyl-2-methylpiperazin-1-yl)-2^6,3^6-difluoro-1^2-isopropyl-2^2-oxo-2^1,2^2-dihydro-4-oxa-2(1,7)-pyrido[2,3-d]pyrimidina-1(3,4)-pyridina-3(1,2)-benzocycloheptane-7-yl acetate] in this work.
